The target of one assay is KRAS (G13D)::SOS1 (Homo sapiens (Human), UniProt P01116, C118S/G13D). The assay can be described thus: KRAS::SOS1 AlphaScreen binding assay, KRAS G13D. An excerpt:
(§1) This assay can be used to examine the potency with which compounds according to the invention binding to (mutated) KRAS inhibit the protein-protein interaction between SOS1 and (mutated) KRAS e.g., KRAS WT, KRAS G12C, KRAS G12D, KRAS G12V, KRAS G13D. […] Low IC50 values in this assay setting are indicative of strong inhibition of protein-protein interaction between SOS1 and KRAS:
(§2) These assays measure the inhibitory effect of compounds on KRAS mutant protein-protein interactions using the Alpha Screen technology by Perkin Elmer.
(§3) The following (mutant) enzyme forms of KRAS and interacting proteins are used in these assays at the given concentrations: • KRAS (G12D) 1-169, N-terminal 6His-tag, C-terminal avi-tag (Xtal BioStructures, Inc.); final assay concentration 10 nM and SOS1 564-1049, N-terminal 229 GST-tag, TEV cleavage site (Viva Biotech Ltd); final assay concentration 5 nM; • KRAS (G12C) 1-169, N-terminal 6His-tag for purification, cleaved off, C-terminal avi-tag, biotinylated, mutations: C51S, C80L, C118S (in house); final assay concentration 7.5 nM and SOS1 564-1049, N-terminal 229 GST-tag, TEV cleavage site (Viva Biotech Ltd); final assay concentration 5 nM; • KRAS (G12V) 1-169, N-terminal 6His-tag for purification, cleaved off, C-terminal avi-tag, biotinylated, TEV cleavage site, mutation: C118S, GDP loaded (in house); final assay concentration 10 nM and SOS1 564-1049, N-terminal 229 GST-tag, TEV cleavage site (Viva Biotech Ltd); final assay concentration 10 nM; • KRAS (G13D) 1-169, N-terminal 6His-tag for purification, cleaved off, C-terminal avi-tag, biotinylated, TEV cleavage site, mutation: C118S, GDP loaded (in house); final assay concentration 10 nM and SOS1 564-1049, N-terminal 229 GST-tag, TEV cleavage site (Viva Biotech Ltd); final assay concentration 10 nM; • KRAS (WT) 1-169, N-terminal 6His-tag for purification, cleaved off, C-terminal avi-tag, biotinylated, TEV cleavage site, mutation: C118S, GDP loaded (in house); final assay concentration 10 nM and SOS1 564-1049, N-terminal 229 GST-tag, TEV cleavage site (Viva Biotech Ltd); final assay concentration 10 nM.
(§4) Test compounds dissolved in DMSO are dispensed onto assay plates (Proxiplate 384 PLUS, white, PerkinElmer; 6008289) using an Access Labcyte Workstation with the Labcyte Echo 55×. For the chosen highest assay concentration of 100 μM, 150 nL of compound solution are transferred from a 10 mM DMSO compound stock solution. A series of eleven fivefold dilutions per compound are transferred to the assay plate, compound dilutions are tested in duplicates. DMSO are added as backfill to a total volume of 150 nL.
(§5) The assays run on a fully automated robotic system in a darkened room below 100 Lux. To 150 nl of compound dilution 10 μl of a mix including KRAS mutant protein, SOS1 (final assay concentrations see above) and GDP nucleotide (Sigma G7127; final assay concentration 10 μM) in assay buffer (1×PBS, 0.1% BSA, 0.05% Tween 20) are added into columns 1-24.
(§6) After 30 minutes incubation time 5 μl of Alpha Screen bead mix in assay buffer are added into columns 1-23. Bead mix consists of AlphaLISA Glutathione Acceptor Beads (PerkinElmer, Cat No AL109) and AlphaScreen Streptavidin Donor Beads (PerkinElmer Cat No 6760002) in assay buffer at a final assay concentration of 10 μg/ml each.
(§7) Plates are kept at room temperature in a darkened incubator. After an additional 60 minutes incubation time the signal is measured in a PerkinElmer Envision HTS Multilabel Reader using the AlphaScreen specs from PerkinElmer.
(§8) Each plate contains up to 16 wells of a negative control depending on the dilution procedure (platewise or serial) (DMSO instead of test compound; with KRAS mutant::SOS1 GDP mix and bead mix; column 23) and 16 wells of a positive control (DMSO instead of test compound; with KRAS mutant::SOS1 GDP mix w/o bead mix; column 24).
(§9) As internal control known inhibitors of KRAS mutant::SOS1 interaction can be measured on each compound plate. […]

The next assay addresses KRAS (G12V)::SOS1 (Homo sapiens (Human), UniProt P01116, C118S/G12V). Put plainly: KRAS::SOS1 AlphaScreen binding assay, KRAS G12V.
Excerpt: as §1, §2, §3, §4, §5, §6, §7, §8, §9

A further assay has as its system A375 cells. Put plainly: A375 CTG proliferation assay (120 h) (melanoma, wt, B-Raf mutant, negative control). Type of assay: cell-based. The following applies: Homo sapiens, A-375, CTG 120 h. As to the method: A375 CTG Proliferation Assay (120 h) (Melanoma, Wt, B-Raf Mutant, Negative Control)
A375 cells (ATCC CRL-1619) are dispensed into 384-well plates, flat and clear bottom (Greiner, PNr. 781091) at a density of 300 cells per well in 60 μL DMEM (Sigma 06429)+10% Fetal Calf Serum (HyClone, PNr.: SH30084.03) and incubated at 37° C. in a CO2 incubator overnight. The next day, compounds (10 mM stock in DMSO) are added at logarithmic dose series using the HP Digital Dispenser D300 (Tecan), including DMSO controls. Plates are incubated for 120 h, and cell viability is measured using CellTiter-Glo luminescent cell viability reagent (Promega product code G7570). Viability (stated as percent of control) is defined as relative luminescence units RLU of each well divided by the RLU of cells in DMSO controls. IC50 values are determined from viability measurements by non-linear regression using a four-parameter model.

Molecules are shown by their SMILES.

Chain of KRAS (G12V)::SOS1 (P01116 other isoform, or with tags, fused parts or gaps G12V/C118S): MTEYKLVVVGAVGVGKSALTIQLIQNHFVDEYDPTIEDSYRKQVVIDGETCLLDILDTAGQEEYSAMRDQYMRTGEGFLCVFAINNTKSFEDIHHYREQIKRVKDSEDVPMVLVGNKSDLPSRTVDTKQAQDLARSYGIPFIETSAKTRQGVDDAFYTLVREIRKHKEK
Chain of KRAS (G13D)::SOS1 (P01116 other isoform, or with tags, fused parts or gaps G13D/C118S): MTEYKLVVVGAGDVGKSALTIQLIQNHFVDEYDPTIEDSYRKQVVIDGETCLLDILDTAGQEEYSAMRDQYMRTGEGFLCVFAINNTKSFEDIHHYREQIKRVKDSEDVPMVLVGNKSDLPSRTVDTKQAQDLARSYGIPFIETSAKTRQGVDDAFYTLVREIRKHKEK

In the case of `C[C@H](Oc1cc(N2CC[C@H](N(C)C)C2)nc(-c2noc3c2CCC[C@@]32CCCc3sc(N)c(C#N)c32)n1)[C@@H]1CCCN1C` [II-49], the IC50 on KRAS (G13D)::SOS1 came to 173 nM; at KRAS (G12V)::SOS1, 54 nM.
Regarding `C[C@H](Oc1cc(N2CCNC3(CC3)C2)nc(-c2noc3c2CCC[C@@]32CCCc3sc(N)c(C#N)c32)n1)[C@@H]1CCCN1C` [II-54], the IC50 stood at 33 nM at KRAS (G13D)::SOS1 and 9 nM at KRAS (G12V)::SOS1.
The like results for `C[C@H](Oc1cc(N2CCN(C)CC2)nc(-c2noc3c2CCC[C@@]32CCCc3sc(N)c(C#N)c32)n1)[C@@H]1CCCN1C` [II-55] were, in that order, 47 nM and 11 nM.
Regarding `C[C@H](Oc1cc(N2CCNC2=O)nc(-c2noc3c2CCC[C@@]32CCCc3sc(N)c(C#N)c32)n1)[C@@H]1CCCN1C` [II-64], in the assay on A375 cells, the IC50 was 2580 nM.
On to `C[C@H](Oc1cc(-n2cncn2)nc(-c2noc3c2CCC[C@@]32CCCc3sc(N)c(C#N)c32)n1)[C@@H]1CCCN1C` [II-70], for which the IC50 on KRAS (G13D)::SOS1 was determined as 19 nM.
For `C[C@H](Oc1cc(N2CCCC3(COC3)C2)nc(-c2noc3c2CCC[C@@]32CCCc3sc(N)c(C#N)c32)n1)[C@@H]1CCCN1C` [II-72], the IC50 on KRAS (G13D)::SOS1 turned out to be 9 nM.
`C[C@H](Oc1cc(N2CCN(C)C2=O)nc(-c2noc3c2CCC[C@@]32CCCc3sc(N)c(C#N)c32)n1)[C@@H]1CCCN1C` [II-75] yielded a half-maximal inhibitory concentration (IC50) in the assay on A375 cells of 2540 nM.
At KRAS (G13D)::SOS1, `C[C@H](Oc1cc(C2CCOCC2)nc(-c2noc3c2CCC[C@@]32CCCc3sc(N)c(C#N)c32)n1)[C@@H]1CCCN1C` [II-76] came in with an IC50 of 41 nM.
For `C[C@H](Oc1cc(N2CCOC3(COC3)C2)nc(-c2noc3c2CCC[C@@]32CCCc3sc(N)c(C#N)c32)n1)[C@@H]1CCCN1C` [II-77], the IC50 on KRAS (G13D)::SOS1 is 8 nM; in the assay with A375 cells, > 3000 nM.
For `C[C@H](Oc1cc(-c2ccncc2)nc(-c2noc3c2CCC[C@@]32CCCc3sc(N)c(C#N)c32)n1)[C@@H]1CCCN1C` [II-78], the IC50 on KRAS (G12V)::SOS1 was 3 nM.
The same measure, in the same setting: next, `C[C@H](Oc1cc(-c2cncnc2)nc(-c2noc3c2CCC[C@@]32CCCc3sc(N)c(C#N)c32)n1)[C@@H]1CCCN1C` [II-82]: 9 nM; `C[C@H](Oc1cc(-c2ccccn2)nc(-c2noc3c2CCC[C@@]32CCCc3sc(N)c(C#N)c32)n1)[C@@H]1CCCN1C` [II-85]: 2 nM; `C[C@H](Oc1cc(N2CCc3cccnc32)nc(-c2noc3c2CCC[C@@]32CCCc3sc(N)c(C#N)c32)n1)[C@@H]1CCCN1C` [II-90]: 8 nM.
As to `CO[C@@H]1C[C@@H]([C@H](C)Oc2cc(-c3ccn(C)n3)nc(-c3noc4c3CCC[C@@]43CCCc4sc(N)c(C#N)c43)n2)N(C)C1` [II-91], the IC50 in the assay with A375 cells was 1140 nM.
Consider `C[C@H](Oc1cc([C@@H]2CCOC2)nc(-c2noc3c2CCC[C@@]32CCCc3sc(N)c(C#N)c32)n1)[C@@H]1CCCN1C` [II-94], for which the values for the half-inhibitory concentration (IC50) on KRAS (G13D)::SOS1, on KRAS (G12V)::SOS1 and in the assay with A375 cells were 9 nM, 2 nM and > 3000 nM, respectively.
At KRAS (G12V)::SOS1, `C[C@H](Oc1cc(-c2ccn(C)n2)nc(-c2noc3c2CCC[C@@]32CCCc3sc(N)c(C#N)c32)n1)[C@@H]1CCCN1C` [II-96] gave a 50% inhibitory concentration (IC50) of 2 nM. This counts as single-digit nanomolar.
The same measure, in the same setting: next, `C[C@H](Oc1cc(-c2ccc(N)nc2)nc(-c2noc3c2CCC[C@@]32CCCc3sc(N)c(C#N)c32)n1)[C@@H]1CCCN1C` [II-101]: 2 nM; `C[C@H](Oc1cc(-n2cncc3ccnc2-3)nc(-c2noc3c2CCC[C@@]32CCCc3sc(N)c(C#N)c32)n1)[C@@H]1CCCN1C` [II-105]: 2 nM; `C[C@H](Oc1cc(-n2ccc(Br)n2)nc(-c2noc3c2CCC[C@@]32CCCc3sc(N)c(C#N)c32)n1)[C@@H]1CCCN1C` [II-110]: 3 nM.
Compound `C[C@H](Oc1cc(-n2ccncc2=O)nc(-c2noc3c2CCC[C@@]32CCCc3sc(N)c(C#N)c32)n1)[C@@H]1CCCN1C` [II-116] yielded an IC50 on KRAS (G13D)::SOS1 of 17 nM.
For the compound `C[C@H](Oc1cc(-n2ccc(-c3ccccn3)n2)nc(-c2noc3c2CCC[C@@]32CCCc3sc(N)c(C#N)c32)n1)[C@@H]1CCCN1C` [II-119], the half-maximal inhibitory concentration (IC50) at KRAS (G12V)::SOS1 is 2 nM.
Same read-out and setting: with `C[C@H](Oc1cc(-n2ccnc2)nc(-c2noc3c2CCC[C@@]32CCCc3sc(N)c(C#N)c32)n1)[C@@H]1C[C@@H](F)CN1C` [II-120] the figure was 5 nM.
The compound `CNC(=O)c1cn(-c2cc(O[C@@H](C)[C@@H]3CCCN3C)nc(-c3noc4c3CCC[C@@]43CCCc4sc(N)c(C#N)c43)n2)nn1` [II-122] yielded an IC50 in the assay with A375 cells of 761 nM.
Same read-out and setting: next, `C[C@H](Oc1cc(-n2cc(-c3cccnc3)nn2)nc(-c2noc3c2CCC[C@@]32CCCc3sc(N)c(C#N)c32)n1)[C@@H]1CCCN1C` [II-123]: 259 nM.

The values are drawn from US20240174690A1, “ANNULATED 2-AMINO-3-CYANO THIOPHENES AND DERIVATIVES FOR THE TREATMENT OF CANCER” (BOEHRINGER INGELHEIM INTERNATIONAL GMBH, priority 2021, published 2024).
